Data as given in PubChem BioAssay (NCI).
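Tested at 5 concentrations; 48 h exposure; 96-well plates; endpoints linearly interpolated, else capped at highest concentration. Abbreviation: GI50, concentration required for 50% inhibition of growth. TGI marks complete inhibition of growth.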

Columns and labels:
Experiment in all cases: DTP human tumour cell line panel, 48 h
[1] = tested on: SNB-19 CNS
[2] = tested on: MDA-MB-435
[3] = tested on: SK-OV-3 ovarian
[4] = tested on: OVCAR-5 ovarian
[5] = tested on: SF-539 CNS
[6] = tested on: HOP-62 NSCLC
[7] = tested on: SK-MEL-5 melanoma
[8] = tested on: UO-31 renal
[9] = tested on: HCT-15 colon
[10] = tested on: HCT-116 colon
[11] = tested on: TK-10 renal
[12] = tested on: SR leukemia
[13] = tested on: BT-549 breast
[14] = tested on: U251 CNS
[15] = tested on: SF-268 CNS
[16] = tested on: A498 renal
[17] = tested on: ACHN renal
[18] = tested on: SNB-75 CNS
[19] = tested on: NCI/ADR-RES ovarian
[20] = tested on: OVCAR-3 ovarian
[21] = tested on: NCI-H460 lung
[22] = tested on: NCI-H23 lung
[23] = tested on: OVCAR-8 ovarian
[24] = tested on: SF-295 CNS
[25] = tested on: HL-60(TB) leukemia
[26] = tested on: HOP-92 NSCLC
[27] = tested on: KM12 colon
[28] = tested on: SN12C renal
[29] = tested on: MCF7 breast
[30] = tested on: HCC-2998 colon
[31] = tested on: IGROV1 ovarian
[32] = tested on: MOLT-4 leukemia
[33] = tested on: MALME-3M melanoma
[34] = tested on: CAKI-1 renal
[35] = tested on: HS 578T breast
[36] = tested on: SW-620 colon
[37] = tested on: NCI-H226 lung
[38] = tested on: COLO 205 colon
[39] = tested on: UACC-62 melanoma
[40] = tested on: M14 melanoma
[41] = tested on: EKVX NSCLC
[42] = tested on: K-562 leukemia
[43] = tested on: DU-145 prostate
[44] = tested on: RXF 393 renal
[45] = tested on: NCI-H522 lung
[46] = tested on: PC-3 prostate
[47] = tested on: LOX IMVI melanoma
[48] = tested on: A549 NSCLC
[49] = tested on: HT29 colon
[50] = tested on: 786-0 renal
[51] = tested on: MDA-MB-231 breast
[52] = tested on: OVCAR-4 ovarian
[53] = tested on: MDA-MB-468 breast
[54] = tested on: SK-MEL-28 melanoma
[55] = tested on: T-47D breast
[56] = tested on: UACC-257 melanoma
[57] = tested on: CCRF-CEM leukemia

CC[C@]12C=CCN3CC[C@@]4(c5ccc(OC)cc5N(C)[C@H]4[C@@](O)(C(=O)OC)[C@@H]1OC(=O)CCC[P+](c1ccc(OC)cc1)(c1ccc(OC)cc1)c1ccc(OC)cc1)[C@@H]32
GI50 [1]: 341 nM | TGI [1]: 1350 nM | GI50 [2]: 381 nM | TGI [2]: 1420 nM | GI50 [3]: 595 nM | TGI [3]: 1680 nM | GI50 [4]: 686 nM | TGI [4]: 2210 nM | GI50 [5]: 622 nM | TGI [5]: 1670 nM | GI50 [6]: 1040 nM | TGI [6]: 2670 nM | GI50 [7]: 722 nM | TGI [7]: 1870 nM | GI50 [8]: 3090 nM | TGI [8]: 15500 nM | GI50 [9]: 2510 nM | TGI [9]: 7000 nM | GI50 [10]: 469 nM | TGI [10]: 1660 nM | GI50 [11]: 1400 nM | TGI [11]: 2870 nM | GI50 [12]: 397 nM | TGI [12]: 1780 nM | GI50 [13]: 532 nM | TGI [13]: 1350 nM | GI50 [14]: 360 nM | TGI [14]: 1370 nM | GI50 [15]: 318 nM | TGI [15]: 1460 nM | GI50 [16]: 2020 nM | TGI [16]: 5670 nM | GI50 [17]: 2760 nM | TGI [17]: 7890 nM | GI50 [18]: 178 nM | TGI [18]: 735 nM | GI50 [19]: 18100 nM | TGI [19]: 49700 nM | GI50 [20]: 422 nM | TGI [20]: 1570 nM | GI50 [21]: 666 nM | TGI [21]: 2360 nM | GI50 [22]: 472 nM | TGI [22]: 1660 nM | GI50 [23]: 1420 nM | TGI [23]: 3870 nM | GI50 [24]: 1250 nM | TGI [24]: 3030 nM | GI50 [25]: 237 nM | TGI [25]: 800 nM | GI50 [26]: 279 nM | TGI [26]: 1080 nM | GI50 [27]: 464 nM | TGI [27]: 1560 nM | GI50 [28]: 458 nM | TGI [28]: 1510 nM | GI50 [29]: 383 nM | TGI [29]: 1430 nM | GI50 [30]: 446 nM | TGI [30]: 1570 nM | GI50 [31]: 455 nM | TGI [31]: 1600 nM | GI50 [32]: 621 nM | TGI [32]: 2380 nM | GI50 [33]: 224 nM | TGI [33]: 536 nM | GI50 [34]: 4360 nM | TGI [34]: 9190 nM | GI50 [35]: 1180 nM | TGI [35]: 3970 nM | GI50 [36]: 557 nM | TGI [36]: 2050 nM | GI50 [37]: 1430 nM | TGI [37]: 3870 nM | GI50 [38]: 192 nM | TGI [38]: 369 nM | GI50 [39]: 396 nM | TGI [39]: 1170 nM | GI50 [40]: 638 nM | TGI [40]: 1870 nM | GI50 [41]: 737 nM | TGI [41]: 3350 nM | GI50 [42]: 556 nM | TGI [42]: 2130 nM | GI50 [43]: 635 nM | TGI [43]: 4340 nM | GI50 [44]: 362 nM | TGI [44]: 1340 nM | GI50 [45]: 334 nM | TGI [45]: 1180 nM | GI50 [46]: 414 nM | TGI [46]: 2150 nM | GI50 [47]: 490 nM | TGI [47]: 1590 nM | GI50 [48]: 591 nM | TGI [48]: 4390 nM | GI50 [49]: 284 nM | TGI [49]: 859 nM | GI50 [50]: 1530 nM | TGI [50]: 3370 nM | GI50 [51]: 254 nM | TGI [51]: 654 nM | GI50 [52]: 537 nM | TGI [52]: 3440 nM | GI50 [53]: 166 nM | TGI [53]: 491 nM | GI50 [54]: 477 nM | TGI [54]: 1640 nM | GI50 [55]: 309 nM | TGI [55]: 1600 nM | GI50 [56]: 489 nM | TGI [56]: 1760 nM | GI50 [57]: 582 nM | TGI [57]: 2020 nM
